Reference: paper PMC4014121, “Structure of sulfamidase provides insight into the molecular pathology of mucopolysaccharidosis IIIA” (Acta Crystallographica Section D: Biological Crystallography, 2014)

Molecular target: T1, SGSH (sulfamidase; N-sulfoglucosamine sulfohydrolase) (Homo sapiens, UniProt P51688)
T1 construct: full-length cDNA with C-terminal RSHHHHHH (residues 503-510), tag kept; secreted from HEK 293 cells, HisTrap purified; signal peptide removed (modelled from residue 21/22); glycosylated; Cys70 converted to formylglycine; homodimer, 55 kDa unglycosylated subunit
T1 sequence (P51688 21-502): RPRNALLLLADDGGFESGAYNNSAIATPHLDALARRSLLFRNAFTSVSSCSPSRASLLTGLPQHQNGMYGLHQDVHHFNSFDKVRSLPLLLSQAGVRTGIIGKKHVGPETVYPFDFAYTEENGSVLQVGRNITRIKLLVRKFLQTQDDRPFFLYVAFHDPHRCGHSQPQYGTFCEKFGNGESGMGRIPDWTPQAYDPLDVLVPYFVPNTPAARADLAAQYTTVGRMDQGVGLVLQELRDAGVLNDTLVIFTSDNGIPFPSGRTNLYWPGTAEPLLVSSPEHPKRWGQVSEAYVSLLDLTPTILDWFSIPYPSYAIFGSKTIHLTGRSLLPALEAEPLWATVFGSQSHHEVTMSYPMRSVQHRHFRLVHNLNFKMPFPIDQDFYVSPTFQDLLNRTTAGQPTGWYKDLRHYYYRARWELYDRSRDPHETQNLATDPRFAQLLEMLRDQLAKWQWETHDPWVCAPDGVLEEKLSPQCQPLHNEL
Assay: two-step fluorometric assay with MU-alphaGlcNS, alpha-glucosidase coupled
Type: biochemical

Row | IC50 | SMILES
1 | 1000 µM | O=P(O)(O)O [phosphate]
2 | 5000 µM | O=S(=O)(O)O [sulfate]
